Counter-ions that a name gives are not always drawn.

In patent US12440496B2, “Natriuretic peptide receptor a agonists useful for the treatment of cardiometabolic diseases, kidney disease and diabetes” (Merck Sharp & Dohme LLC, priority 2019, dated 2025) one finds EC50 data, which are given here for 16 compounds.

In this assay the target is T1, hNPRA (Homo sapiens, UniProt P16066).
T1 construct: expressed in transfected cells
T1 sequence (P16066 33-1061): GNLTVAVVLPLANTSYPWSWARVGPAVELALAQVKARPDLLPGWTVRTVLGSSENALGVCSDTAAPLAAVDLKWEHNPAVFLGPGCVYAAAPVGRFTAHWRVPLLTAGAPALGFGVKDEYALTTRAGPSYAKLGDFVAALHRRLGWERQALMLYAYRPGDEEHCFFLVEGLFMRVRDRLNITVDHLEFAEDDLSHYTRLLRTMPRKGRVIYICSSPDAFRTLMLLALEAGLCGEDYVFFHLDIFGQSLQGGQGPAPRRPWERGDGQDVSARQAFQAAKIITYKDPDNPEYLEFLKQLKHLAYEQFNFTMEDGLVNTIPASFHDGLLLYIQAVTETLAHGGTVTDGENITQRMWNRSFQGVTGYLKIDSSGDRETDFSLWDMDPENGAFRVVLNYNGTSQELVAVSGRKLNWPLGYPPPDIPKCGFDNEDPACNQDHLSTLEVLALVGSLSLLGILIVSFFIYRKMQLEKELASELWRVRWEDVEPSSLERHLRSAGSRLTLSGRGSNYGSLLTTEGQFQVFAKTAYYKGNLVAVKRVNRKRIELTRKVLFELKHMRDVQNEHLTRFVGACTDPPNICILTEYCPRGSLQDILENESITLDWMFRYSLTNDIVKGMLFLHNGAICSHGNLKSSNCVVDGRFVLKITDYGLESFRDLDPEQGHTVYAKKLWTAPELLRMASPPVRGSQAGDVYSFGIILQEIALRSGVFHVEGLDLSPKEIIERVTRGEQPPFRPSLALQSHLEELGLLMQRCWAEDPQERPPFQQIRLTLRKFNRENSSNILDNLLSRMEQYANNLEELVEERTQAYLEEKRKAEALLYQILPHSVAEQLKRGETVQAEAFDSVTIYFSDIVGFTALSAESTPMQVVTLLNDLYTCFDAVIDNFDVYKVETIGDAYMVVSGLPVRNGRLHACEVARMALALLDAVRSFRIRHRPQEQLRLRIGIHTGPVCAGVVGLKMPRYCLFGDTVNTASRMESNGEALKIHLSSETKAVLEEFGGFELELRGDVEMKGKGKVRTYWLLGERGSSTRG
The experiment in a line: NPRA Functional Cell Assay (cGMP HTRF, NPRA HEK JumpIn stable cells). The format is cell-based. The settings on record: cGMP production, 1 hour at 37° C., 10-point dose response. The procedure, abridged:
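cGMP HTRF read-out after 1 hour compound treatment at 37° C. of human NPRA-expressing HEK JumpIn cells, 1500 cells/well, in buffer with phosphodiesterase inhibitors IBMX and RO20 (100 uM each). Signal converted to [cGMP] by calibration curve; EC50s fitted by 4-parameter logistic; 50 nM h-ANP as positive response.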
In general terms: Time-resolved FRET reads energy transfer from a long-lived donor to a nearby acceptor.
A word on the EC50: it is the concentration giving half of the maximal effect. For the compound `COC(=O)CC1CCN(CC[C@@H](NC(=O)c2nc3cc4c(nc3s2)CC[C@H](C(C)(C)C)C4)c2cccc(C(=O)NC3CN(C)C3)c2)CC1` (racemic) [Example 110, methyl 2-[1-[rac-(3R)-3-[3-{(1-methylazetidin-1-ium-3-yl)carbamoyl]phenyl]-3-[rac-(7S)-7-tert-butyl-5,6,7,8-tetrahydrothiazolo[5,4-b]quinoline-2-carbonyl]amino]propyl]-4-piperidyl]acetate; 2,2,2-trifluoroacetate], the EC50 worked out at 632 nM.

As to `CN(CCC(=O)O)CC[C@@H](NC(=O)c1nc2cc3c(nc2s1)CC[C@H](C(C)(C)C)C3)c1cccc(C(=O)NC2CN(C)C2)c1` (racemic) [Example 111, 3-[methyl-[rac-(3R)-3-[3-[(1-methylazetidin-1-ium-3-yl)carbamoyl]phenyl]-3-[[rac-(7S)-7-tert-butyl-5,6,7,8-tetrahydrothiazolo[5,4-b]quinoline-2-carbonyl]amino]propyl]amino] propanoic acid; 2,2,2-trifluoroacetate], the EC50 is 645 nM.

The compound `CN1CC(NC(=O)c2cccc([C@@H](CCN3CCC(C(=O)O)C3)NC(=O)c3nc4cc5c(nc4s3)CC[C@H](C(C)(C)C)C5)c2)C1` (mixture of isomers) [Example 112, rac-(3R)-1-[rac-(3R)-3-[3-[(1-methylazetidin-1-ium-3-yl)carbamoyl]phenyl]-3-[rac-(7S)-7-tert-butyl-5,6,7,8-tetrahydrothiazolo[5,4-b]quinoline-2-carbonyl]amino]propyl]pyrrolidine-3-carboxylic acid; 2,2,2-trifluoroacetate] displayed an EC50 of 754 nM.

`CN1CC(NC(=O)c2cccc([C@@H](CCN3CC[C@H](C(=O)O)C3)NC(=O)c3nc4cc5c(nc4s3)CC[C@H](C(C)(C)C)C5)c2)C1` (racemic) [Example 113, rac-(3S)-1-[rac-(3R)-3-[3-[(1-methylazetidin-1-ium-3-yl)carbamoyl]phenyl]-3-[[rac-(7S)-7-tert-butyl-5,6,7,8-tetrahydrothiazolo[5,4-b]quinoline-2-carbonyl]amino]propyl]pyrrolidine-3-carboxylic acid; 2,2,2-trifluoroacetate] had an EC50 of 939 nM.

As for `COC(=O)C1CCN(CC[C@@H](NC(=O)c2nc3cc4c(nc3s2)CC[C@H](C(C)(C)C)C4)c2cccc(C(=O)NC3CN(C)C3)c2)CC1` (racemic) [Example 114, methyl 1-[rac-(3R)-3-[3-[(1-methylazetidin-1-ium-3-yl)carbamoyl]phenyl]-3-[[rac-(7S)-7-tert-butyl-5,6,7,8-tetrahydrothiazolo[5,4-b]quinoline-2-carbonyl]amino]propyl] piperidine-4-carboxylate; 2,2,2-trifluoroacetate], a half-maximal response (EC50) required 671 nM.

As for `CN1CC(NC(=O)c2cccc([C@@H](CCNCC(=O)O)NC(=O)c3nc4cc5c(nc4s3)CC[C@H](C(C)(C)C)C5)c2)C1` (racemic) [Example 115, carboxymethyl-[rac-(3R)-3-[3-[(1-methylazetidin-3-yl)carbamoyl]phenyl]-3-[rac-(7S)-7-tert-butyl-5,6,7,8-tetrahydrothiazolo[5,4-b]quinoline-2-carbonyl]amino]propyl]ammonium; 2,2,2-trifluoroacetate], the response was half-maximal at 1410 nM (EC50).

In the case of `CC(C)(C)[C@H]1CCc2nc3sc(C(=O)N[C@H](CCN4CCC(O)CC4)c4cccc(N5CC6(CCNCC6)OC5=O)c4)nc3cc2C1` (racemic) [Example 116, rac-(7S)-7-tert-butyl-N-[rac-(1R)-3-(4-hydroxy-1-piperidyl)-1-[3-(2-oxo-1-oxa-3-aza-8-azoniaspiro [4.5]decan-3-yl)phenyl]propyl]-5,6,7,8-tetrahydrothiazolo[5,4-b] quinoline-2-carboxamide; 2,2,2-trifluoroacetate], the EC50 turned out to be 622 nM.

With `CC(C)(C)[C@H]1CCc2nc3sc(C(=O)N[C@H](CCN4CCC(O)CC4)c4cccc(N5CCNC5=O)c4)nc3cc2C1` (racemic) [Example 117, rac-(7S)-7-tert-butyl-N-[rac-(1R)-3-(4-hydroxypiperidin-1-ium-1-yl)-1-[3-(2-oxoimidazolidin-1-yl)phenyl]propyl]-5,6,7,8-tetrahydrothiazolo[5,4-b] quinoline-2-carboxamide; 2,2,2-trifluoroacetate], the midpoint of the response, the EC50, lay at 795 nM.

On to `CC(C)(C)[C@H]1CCc2nc3sc(C(=O)N[C@H](CCN4CCC(O)CC4)c4cccc(NC(=O)C5CCNC5)c4)nc3cc2C1` (mixture of isomers) [Example 118, rac-(7S)-7-tert-butyl-N-[rac-(1R)-3-(4-hydroxy-1-piperidyl)-1-[3-(pyrrolidin-1-ium-3-carbonylamino)phenyl]propyl]-5,6,7,8-tetrahydrothiazolo[5,4-b] quinoline-2-carboxamide; 2,2,2 trifluoroacetate], for which the concentration giving a half-maximal response (EC50) worked out at 985 nM.

For `CC(C)(C)[C@H]1CCc2nc3sc(C(=O)N[C@H](CCN4CCC(O)CC4)c4cccc(NC(=O)CCN)c4)nc3cc2C1` (racemic) [Example 119, [3-oxo-3-[3-[rac-(1R)-3-(4-hydroxy-1-piperidyl)-1-[[rac-(7S)-7-tert-butyl-5,6,7,8-tetrahydrothiazolo [5,4-b]quinoline-2-carbonyl]amino]propyl]anilino]propyl]ammonium; 2,2,2-trifluoroacetate], the EC50 was found to be 1210 nM.

Compound `CC(C)(C)[C@H]1CCc2nc3sc(C(=O)N[C@H](CCN4CCC(O)CC4)c4cccc(N5CCOC5=O)c4)nc3cc2C1` (racemic) [Example 120, rac-(7S)-7-tert-butyl-N-[rac-(1R)-3-(4-hydroxypiperidin-1-ium-1-yl)-1-[3-(2-oxooxazolidin-3-yl)phenyl]propyl]-5,6,7,8-tetrahydrothiazolo[5,4-b] quinoline-2-carboxamide; 2,2,2-trifluoroacetate] showed an EC50 of 1670 nM.

For the compound `CN1CCC(NC(=O)c2cccc([C@@H](CCN3CCC(C(=O)O)CC3)NC(=O)c3nc4cc5c(nc4s3)CC[C@H](C(C)(C)C)C5)c2)C1` (mixture of isomers) [Example 121, 1-[rac-(3R)-3-[3-[(1-methylpyrrolidin-3-yl)carbamoyl]phenyl]-3-[[rac-(7S)-7-tert-butyl-5,6,7,8-tetrahydrothiazolo [5,4-b]quinoline-2-carbonyl]amino]propyl]piperidine-4-carboxylic acid], the EC50 amounted to 224 nM.

In turn, `CC(C)(C)[C@H]1CCc2nc3sc(C(=O)N[C@H](CCN4CCC(C(=O)O)CC4)c4cccc(C(=O)NC5CNC5)c4)nc3cc2C1` (racemic) [Example 122, 1-[rac-(3R)-3-[3-(azetidin-1-ium-3-ylcarbamoyl)phenyl]-3-[rac-(7S)-7-tert-butyl-5,6,7,8-tetrahydrothiazolo [5,4-b]quinoline-2-carbonyl]amino]propyl] piperidine-4-carboxylic acid; 2,2,2-trifluoroacetate] showed an EC50 of 637 nM.

Compound `CC(C)(C)[C@H]1CCc2nc3sc(C(=O)N[C@H](CCN4CCC(C(=O)O)CC4)c4cccc(C(=O)NC5CN(Cc6ccccc6)C5)c4)nc3cc2C1` (racemic) [Example 123, 1-[rac-(3R)-3-[3-{(1-benzylazetidin-3-yl)carbamoyl]phenyl]-3-[[rac-(7S)-7-tert-butyl-5,6,7,8-tetrahydrothiazolo [5,4-b]quinoline-2-carbonyl]amino]propyl] piperidin-1-ium-4-carboxylic acid; 2,2,2-trifluoroacetate] had an EC50 of 657 nM.

Regarding `CC(C)(C)[C@H]1CCc2nc3sc(C(=O)N[C@H](CCN4CCC(C(=O)O)CC4)c4cccc(C(=O)NC5CCN(C6CC6)C5)c4)nc3cc2C1` (mixture of isomers) [Example 124, 1-[rac-(3R)-3-[3-[(1-cyclopropylpyrrolidin-3-yl)carbamoyl]phenyl]-3-[[rac-(7S)-7-tert-butyl-5,6,7,8-tetrahydrothiazolo [5,4-b]quinoline-2-carbonyl]amino]propyl]piper idin-1-ium-4-carboxylic acid; 2,2,2-trifluoroacetate], the concentration giving a half-maximal response (EC50) came out at 929 nM.

Compound `CC1(NC(=O)c2cccc([C@@H](CCN3CCC(C(=O)O)CC3)NC(=O)c3nc4cc5c(nc4s3)CC[C@H](C(C)(C)C)C5)c2)CNC1` (racemic) [Example 125, 1-[rac-(3R)-3-[3-[(3-methylazetidin-1-ium-3-yl)carbamoyl]phenyl]-3-[[rac-(7S)-7-tert-butyl-5,6,7,8-tetrahydrothiazolo [5,4-b]quinoline-2-carbonyl]amino]propyl] piperidine-4-carboxylic acid; 2,2,2-trifluoroacetate] displayed a 50% effective concentration (EC50) of 2000 nM.
